For 1 compound, IC50 results are on record in US12077605B2, “Cysteine protease inhibitors and methods of use thereof” (ANIXA BIOSCIENCES, INC., priority 2022, dated 2024).

The target of the assay is SARS-CoV-2 main protease M^pro (Severe acute respiratory syndrome coronavirus 2 (2019-nCoV) (SARS-CoV-2), UniProt P0DTD1). Kind of assay: Mpro enzyme activity assay (biochemical FRET-based). As to conditions: recombinant Mpro (Ser1-Gln306); EDANS/Dabcyl FRET substrate peptide 2 μM; 30 min pre-incubation; pH 7.3; read-out: Mpro inhibition IC50.

For orientation: IC50 means the midpoint of a concentration-inhibition curve. Take `CNC(=O)C(=O)[C@H](CN1CCNC1=O)NC(=O)[C@H](CC(C)C)NC(=O)c1cc2c(OC)cccc2[nH]1` [compound 2, 4-methoxy-N-((S)-4-methyl-1-(((S)-4-(methylamino)-3,4-dioxo-1-(2-oxoimidazolidin-1-yl)butan-2-yl)amino)-1-oxopentan-2-yl)-1H-indole-2-carboxamide]: the IC50 was determined as 114 nM.
